Measurements reported in US12514929B2, “Deformable nano-scale vehicles (DNVS) for trans-blood brain barrier, trans-mucosal, and transdermal drug delivery” (The Regents of the University of California, priority 2017, dated 2026).

How the values were obtained:
[1] = Pharmacokinetics of galangin and progalangin in mice; format: in vivo; conditions: at 1 h
Text: (§1) Progalangin reduced Aβ40 as well as Aβ42 levels (FIG. 19B).

[2] = tested on: Aβ40; experiment: Effect of galangin and progalangin on Aβ40; parameters: species or system mice; conditions: mouse, in vivo
Text: as §1

[3] = tested on: Aβ42; experiment: Effect of galangin and progalangin on Aβ42; parameters: species or system mice; conditions: mouse, in vivo
Text: as §1

Structure (SMILES): O=c1c(O)c(-c2ccccc2)oc2cc(O)cc(O)c12 [Galangin, galangin]
- Brain Cmax [1]: approximately 50 ng/g
- Aβ40 levels [2]: reduce Aβ40 levels
- Aβ42 levels [3]: no effect
